The subject of data set [1] is mTORC1. Kind of data set: S6K phosphorylation (mTORC1 activation) by immunoblotting in HeLa cells. Particulars: for S6K phosphorylation by the leucine analogue itself: HeLa cells starved 1 hour of leucine, 0.8 or 8 mM analogue; for leucine-induced S6K phosphorylation: HeLa cells, preincubated with 0.8 or 8 mM analogue, then 0.8 mM leucine 5 min. The data set is classed as cell-based. As for the experimental part:
In FIG. 9b, HeLa cells were starved for 1 hour of leucine and preincubated with either 0.8 or 8 mM leucinol or leucine amide. After 5 min, 0.8 mM leucine was added. After 5 min incubation, cells were harvested and S6K phosphorylation was determined by immunoblotting.
(§1) For leucine depletion, cells were rinsed with leucine-free DMEM twice, incubated in leucine-free DMEM for 60 minutes, and stimulated with […] leucine for 5-60 minutes. For amino acid starvation, cells were rinsed with and incubated in DPBS containing 25 mM glucose, 1 mM sodium pyruvate, lx MEM vitamins for 60 minutes, and replaced with and incubated in DMEM for 5-60 minutes.
(§2) Cells were dissolved in the lysis buffer containing 1% Triton X-100, 40 mM HEPES (pH7.4), 2 mM EDTA, 10 mM pyrophosphate, 10 mM glycerophosphate, and protease inhibitor cocktail. The lysates were centrifuged at 13,000 rpm for 30 minutes. We then fractionated 20 μg of the extracted proteins by SDS-PAGE. For immunoprecipitations, the cells were lysed (50 mM Tris-HCL (pH 7.4), 10 mM NaCl, 1 mM EDTA, 0.5 mM EGTA, 1 mM MgCl2, 0.1% CHAPS, and 0.5% Triton X-100, 1 mM phenylmethylsulfonyl fluoride) and the primary antibodies were added to the lysates and incubated with rotation for 2 hr at 4° C. A 50% slurry of protein agarose G-sepharose was then added and the incubation continued for an additional 4 hr. After washing three times with the ice-cold lysis buffer, the precipitates were dissolved in the SDS sample buffer and separated by SDS-PAGE.

For data set [2], the system named is mTORC1. Kind of data set: S6K phosphorylation (mTORC1 activation) by immunoblotting in 293T cells. The data set is classed as cell-based. To be noted: for S6K phosphorylation by the leucine analogue itself: 293T cells starved 1 hour of leucine, 0.8 or 8 mM analogue; for leucine-induced S6K phosphorylation / amino acid-induced S6K phosphorylation / EC50: 293T cells; for leucine-induced S6K phosphorylation: preincubated with 0.8 or 8 mM analogue, then 0.8 mM leucine 5 min; for amino acid-induced S6K phosphorylation: siRNA 48 hours; for EC50: Homo sapiens, HEK-293T. On the procedure:
FIGS. 9a-9d show the effect of LRS knockdown on leucine- or leucine analogues-stimulated S6K phosphorylation. In FIG. 9a, the effect of leucine analogues on leucine-stimulated S6K phosphorylation is shown. 293T cells were starved for 1 hour of leucine and preincubated with either 0.8 or 8 mM leucinol or leucine amide. After 5 min, 0.8 mM leucine was added. After 5 min incubation, cells were harvested and S6K phosphorylation was determined by immunoblotting.
In FIG. 11a, 293T cells were treated with leucine at the indicated concentration for 5 min. Leucine-dependent S6K phosphorylation was determined by immunoblotting. In FIG. 11b, quantitation of p-S6K band in FIG. 11a is shown. EC50 of leucine stimulation of mTORC1 was about […]. In FIG. 11c, kinetic parameters for leucylation and ATP-PPi exchange activity of WT LRS is shown.
as §1, §2

Another data set has as its system 293T cells. Kind of data set: Cell size determination (FSC of G1 cells, FACS). The data set is classed as cell-based. On the procedure: For measurement of cell size using forward scatter units (FSC) with unfixed cells. 293T cells were plated, washed once with PBS, and resuspended in PBS containing 0.1% serum, 5 mM EDTA, 5 ng/ml propidium iodide (PI; Sigma). Samples were analyzed by FACS analysis (FACS caliber; Becton Dickinson) for cell size (FSC). The mean of FSC of G1 phase cells was determined.

For the next data set, the system named is EGFP-LC3 puncta. Kind of data set: Autophagy: EGFP-LC3 puncta in siRNA-transfected cells. The data set is classed as cell-based. Particulars: starved for leucine and serum for 2 hours. On the procedure: The cells were starved for leucine and serum for 2 hours. Accumulation of EGFP-LC3 in puncta, was monitored.
Another data set addresses T1, LRS / RagD binding (Homo sapiens, UniProt Q9NQL2+Q9P2J5).
T1 construct: made in house; RagD: 293T cell lysate
Kind of data set: In vitro pull-down of RagD with GST-LRS. As for the experimental part:
In FIG. 6c, purified GST or GST-LRS protein was incubated with HA-RagD transfected cell lysates in the presence of GDPβS or GTPγS. The co-precipitated RagD was determined by immunoblotting with anti-HA antibody.
In FIG. 10a, the effect of tRNA on in vitro LRS-RagD binding. 293T cell lysates were incubated with purified GST or GST-fused LRS in the presence of the combinations of leucine (0.1 mM), ATP (0.1 mM), and tRNA^Leu (25 μg). The precipitated RagD was determined by immunoblotting with anti-RagD antibody.
Recombinant LRS or RagD fragment proteins were expressed as GST fusion proteins and purified by glutathione sepharose. The interactions between RagD fragments and myc-LRS overexpressed cell lysates or between LRS fragments and HA-RagD overexpressed cell lysates were tested using in vitro binding assays. Binding assay was conducted in 25 mM Tris-HCl buffer (pH7.4) containing 10 mM NaCl, 1 mM MgCl2, 1 mM EDTA, 0.5 mM EGTA, and 0.5% Triton X-100.

T1 sequence (Q9P2J5 whole entry): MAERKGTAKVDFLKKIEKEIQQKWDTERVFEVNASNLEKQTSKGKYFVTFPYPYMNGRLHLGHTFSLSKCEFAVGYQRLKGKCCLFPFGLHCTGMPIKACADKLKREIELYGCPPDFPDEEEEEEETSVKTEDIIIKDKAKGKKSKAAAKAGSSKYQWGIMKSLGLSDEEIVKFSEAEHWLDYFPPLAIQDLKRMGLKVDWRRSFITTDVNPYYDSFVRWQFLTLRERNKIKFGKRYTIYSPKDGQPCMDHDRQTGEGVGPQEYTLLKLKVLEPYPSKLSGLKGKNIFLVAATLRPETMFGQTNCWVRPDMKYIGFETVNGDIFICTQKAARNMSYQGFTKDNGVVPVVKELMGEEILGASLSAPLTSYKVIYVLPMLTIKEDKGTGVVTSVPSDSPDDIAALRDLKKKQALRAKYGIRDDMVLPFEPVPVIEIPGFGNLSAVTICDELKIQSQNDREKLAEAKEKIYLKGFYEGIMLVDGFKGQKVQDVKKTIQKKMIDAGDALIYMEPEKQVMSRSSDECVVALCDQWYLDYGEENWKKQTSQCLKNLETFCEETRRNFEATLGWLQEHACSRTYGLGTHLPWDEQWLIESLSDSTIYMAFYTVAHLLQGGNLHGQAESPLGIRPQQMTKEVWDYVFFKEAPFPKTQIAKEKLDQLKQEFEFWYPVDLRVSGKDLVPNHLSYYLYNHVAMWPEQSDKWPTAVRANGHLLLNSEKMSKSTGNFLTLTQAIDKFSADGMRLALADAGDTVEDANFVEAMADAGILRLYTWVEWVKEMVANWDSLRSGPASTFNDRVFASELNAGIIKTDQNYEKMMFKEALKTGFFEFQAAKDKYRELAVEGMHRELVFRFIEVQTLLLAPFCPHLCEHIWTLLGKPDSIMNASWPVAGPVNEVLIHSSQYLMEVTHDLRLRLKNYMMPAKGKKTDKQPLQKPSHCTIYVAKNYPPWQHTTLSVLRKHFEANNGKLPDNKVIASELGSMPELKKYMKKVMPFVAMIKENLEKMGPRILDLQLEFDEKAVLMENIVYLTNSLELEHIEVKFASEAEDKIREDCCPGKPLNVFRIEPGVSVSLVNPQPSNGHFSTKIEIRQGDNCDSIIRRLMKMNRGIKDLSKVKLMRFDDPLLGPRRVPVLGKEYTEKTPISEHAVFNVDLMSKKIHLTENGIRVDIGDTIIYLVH
T1 sequence (Q9NQL2 whole entry): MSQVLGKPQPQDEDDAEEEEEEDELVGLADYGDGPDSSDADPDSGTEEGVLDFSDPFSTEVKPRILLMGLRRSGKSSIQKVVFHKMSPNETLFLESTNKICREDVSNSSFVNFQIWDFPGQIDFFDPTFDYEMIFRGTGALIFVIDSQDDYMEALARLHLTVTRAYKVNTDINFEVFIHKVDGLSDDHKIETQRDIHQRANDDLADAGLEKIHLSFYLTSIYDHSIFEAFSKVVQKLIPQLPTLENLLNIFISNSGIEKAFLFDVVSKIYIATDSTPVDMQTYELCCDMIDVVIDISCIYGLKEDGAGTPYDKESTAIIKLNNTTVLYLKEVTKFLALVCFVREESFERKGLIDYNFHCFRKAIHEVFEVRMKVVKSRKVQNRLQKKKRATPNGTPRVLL

Regarding `CC(C)C[C@H](N)CO` [leucinol, Leucinol], the “S6K phosphorylation by the leucine analogue itself” value in the data set on mTORC1 [1] and in the data set on mTORC1 [2] was “no effect” throughout. Also, the “leucine-induced S6K phosphorylation” value with mTORC1 [1] and in the data set on mTORC1 [2] was “inhibited leucine-induced S6K phosphorylation in dose-dependent manner” throughout.
Turning to “MRS siRNA: siRNA CUACCGCUGGUUUAACAUUUCGUUU, SEQ ID NO 18 (chemistry not given here)”, the “amino acid-induced S6K phosphorylation” value in the data set with mTORC1 [2] was “not”. Besides, in the data set with 293T cells, the cell size result was “no effect”.
With “mTOR siRNA: siRNA GGAAGUACCCUACUUUGCUUGAGGU, SEQ ID NO 15 (chemistry not given here)”, the “LC3 puncta per cell compared to control siRNA” value in the data set with EGFP-LC3 puncta was “statistically significant increase”. In the data set with mTORC1 [2], the “amino acid-induced S6K phosphorylation” value is “significantly inhibited”.
With `Nc1nc2c(ncn2[C@@H]2O[C@H](COP(=O)(O)OP(O)(O)=S)[C@@H](O)[C@H]2O)c(=O)[nH]1` [GDPβS], the “binding affinity of LRS to RagD” value on LRS / RagD binding (GST-LRS with HA-RagD transfected 293T cell lysates, presence of nucleotide analogue) is “significantly reduced”.
With `CC(C)C[C@H](N)C(N)=O` [leucinamide, L-Leucinamide], the “S6K phosphorylation by the leucine analogue itself” value in the data set on mTORC1 [1] and in the data set on mTORC1 [2] was “significantly induced” each time. The “leucine-induced S6K phosphorylation” value in the data set with mTORC1 [1] and in the data set with mTORC1 [2] was “further increased” throughout.
For the molecule `CC(C)C[C@H](N)C(=O)O` [Leucine, L-Leucine], the EC50 in the data set with mTORC1 [1] (Homo sapiens, HeLa cells (data not shown), read-out: EC50 for leucine stimulation of mTORC1) is around 80 µM; in the data set on mTORC1 [2] (5 min, leucine 5 min, quantitation of p-S6K band (FIG. 11b legend), read-out: EC50 of leucine stimulation of mTORC1), around 80 µM; in the data set on mTORC1 [2] (read-out: EC50 for leucine stimulation of mTORC1), around 80 µM.
“VRS siRNA: siRNA AGAAGAGGAUGUCAUGACCGGUCUC, SEQ ID NO 17 (chemistry not given here)”: in the data set on mTORC1 [2], the “amino acid-induced S6K phosphorylation” value is “not”. In the data set with 293T cells, the cell size entry is recorded as “no effect”.
As to `Nc1ncnc2c1ncn2[C@@H]1O[C@H](COP(=O)(O)OP(=O)(O)OP(=O)(O)O)[C@@H](O)[C@H]1O` [ATP], the “competition with RagD for LRS binding” value at LRS / RagD binding (GST-LRS with 293T cell lysates, ATP 0.1 mM, tRNA^Leu 25 μg) is “not”.

The values are drawn from patent US9435807B2, “Use of leucyl tRNA synthetase” (Medicinal Bioconvergence Research Center, priority 2011, dated 2016).
